Source: patent US20250195477A1, “DEUTERATED IDAZOXAN AND METHODS OF USE THEREOF” (Terran Biosciences Inc., priority 2022, published 2025)

Experiments:
[1] = Metabolic stability in human liver microsomes; type: in vitro ADME; conditions: significant if half-life increase >=15% or CLint ratio (deuterated compound/idazoxan) >1.15 or <0.85
Method: Test compound (1 μM) was incubated with pooled liver microsomes.
Pooled liver microsomes were purchased from a reputable commercial supplier. Microsomes were stored at −80° C. prior to use.
A minus cofactor control incubation was included for each compound tested where 0.1 M phosphate buffer pH 7.4 was added instead of NADPH (minus NADPH). Two control compounds were included with each species. All incubations were performed singularly for each test compound.
The reactions were stopped by transferring incubate into acetonitrile at the appropriate time points, in a 1:3 ratio. The termination plates were centrifuged at 3,000 rpm for 20 min at 4° C. to precipitate the protein.
Following protein precipitation, the sample supernatants were combined in cassettes of up to 4 compounds, internal standard was added and samples analysed using generic LCMS/MS conditions.
From a plot of In peak area ratio (compound peak area/internal standard peak area) against time, the gradient of the line was determined. Subsequently, half-life and intrinsic clearance were calculated using the equations below:
where V=Incubation volume (μL)/Microsomal protein (mg)
Relevant control compounds were assessed, ensuring intrinsic clearance values fell within the specified limits (if available). Any failures were rejected and the assay repeated. The intrinsic clearance (CLint) of the test compound and standard error (SE CLint), t½ and n (number of time points used to calculate CLint) were returned.

[2] = Metabolic stability in human liver microsomes; type: in vitro ADME; conditions: pH 7.4, pooled human liver microsomes 0.5 mg/mL, test compound 3 μM, NADPH, 0, 5, 15, 30, 45 min, LC-MS/MS; for microsomal CLint at 3 μM: read-out: CLint (μL/min/mg protein)
[3] = background statement; species and route not given; cited from earlier work

Compound | differences in in vitro clearance and half-life compared to idazoxan [1] | half-life at 3 μM [2] | microsomal CLint at 3 μM [2] | idazoxan reaching systemic circulation [3]
[2H]c1cc2c(cc1[2H])OC(C1=NC([2H])([2H])C([2H])([2H])N1)CO2 (centres unmarked) [Compound 51, 2-(2,3-dihydrobenzo[b][1,4]dioxin-2-yl-6,7-d2)-4,5-dihydro-1H-imidazole-4,4,5,5-d4] | significant differences | 825 min | 1.68 µL/min/mg | –
[2H]c1cc2c(cc1[2H])OC(C1=NCCN1)CO2 (centres unmarked) [Compound 3, 2-(2,3-dihydrobenzo[b][1,4]dioxin-2-yl-6,7-d2)-4,5-dihydro-1H-imidazole] | significant differences | 622 min | 2.23 µL/min/mg | –
c1ccc2c(c1)OCC(C1=NCCN1)O2 (centres unmarked) [Idazoxan] | – | 257 min | 5.39 µL/min/mg | 27-28%
[2H]c1ccc2c(c1)OCC(C1=NCCN1)O2 (centres unmarked) [Compound 1, 2-(2,3-dihydrobenzo[b][1,4]dioxin-2-yl-6-d)-4,5-dihydro-1H-imidazole] | significant differences | 483 min | 2.87 µL/min/mg | –
[2H]c1ccc2c(c1)OCC(C1=NC([2H])([2H])C([2H])([2H])N1)O2 (centres unmarked) [Compound 49, 2-(2,3-dihydrobenzo[b][1,4]dioxin-2-yl-6-d)-4,5-dihydro-1H-imidazole-4,4,5,5-d4] | significant differences | 932 min | 1.49 µL/min/mg | –
[2H]c1ccc2c(c1)OC(C1=NCCN1)CO2 (centres unmarked) [Compound 2, 2-(2,3-dihydrobenzo[b][1,4]dioxin-2-yl-7-d)-4,5-dihydro-1H-imidazole] | significant differences | 1310 min | 1.06 µL/min/mg | –
COc1ccc2c(c1)[C@]13CCCC[C@@H]1[C@H](C2)N(C)CC3 [Dextromethorphan, reference compound] | – | 28.8 min | 48.1 µL/min/mg | –
[2H]c1ccc2c(c1)OC(C1=NC([2H])([2H])C([2H])([2H])N1)CO2 (centres unmarked) [Compound 50, 2-(2,3-dihydrobenzo[b][1,4]dioxin-2-yl-7-d)-4,5-dihydro-1H-imidazole-4,4,5,5-d4] | significant differences | 54800 min | 0.0253 µL/min/mg | –
[2H]c1c([2H])c([2H])c2c(c1[2H])OCC(C1=NCCN1)O2 (centres unmarked) [Compound 4, 2-(2,3-dihydrobenzo[b][1,4]dioxin-2-yl-5,6,7,8-d4)-4,5-dihydro-1H-imidazole] | significant differences | 536 min | 2.59 µL/min/mg | –
[2H]C1([2H])N=C(C2COc3ccccc3O2)NC1([2H])[2H] (centres unmarked) [Compound 64, 2-(2,3-dihydrobenzo[b][1,4]dioxin-2-yl)-4,5-dihydro-1H-imidazole-4,4,5,5-d4] | significant differences | 477 min | 2.91 µL/min/mg | –
[2H]c1c([2H])c([2H])c2c(c1[2H])OCC(C1=NC([2H])([2H])C([2H])([2H])N1)O2 (centres unmarked) [Compound 52, 2-(2,3-dihydrobenzo[b][1,4]dioxin-2-yl-5,6,7,8-d4)-4,5-dihydro-1H-imidazole-4,4,5,5-d4] | significant differences | 465 min | 2.98 µL/min/mg | –
